From patent US20240277670A1, “SAFE USE OF MMP-12 INHIBITOR” (Foresee Pharmaceuticals Co., Ltd., priority 2021, published 2024)
Read-outs that look alike come from different tables or passages of the source.

Legend:
[1] = Food effect (FE) part, safety and tolerability; assay type: in vivo, human; conditions: for Adverse events possibly-related to drug administration: 200 mg, ASD formulation
Protocol: In this part, eight subjects received 200 mg ASD-in-Capsule orally as a single dose in a randomized way, once under fasting conditions and once after the intake of a high fat breakfast, with a wash-out period of one week between successive dosing (FIG. 4).
Safety and tolerability were assessed at pre-specified timepoints throughout the studies by AEs reporting, vital signs measurements, physical examination, laboratory tests, and ECG examinations.
Safety and tolerability data were evaluated for the treated population (all participants who took at least one dose of study medications). […] Descriptive statistics were used to evaluate the for safety and tolerability data and for plasma concentrations and PK parameters of the compound of formula (I).

[2] = Multiple ascending dose (MAD) part, plasma pharmacokinetics; assay type: in vivo, human; conditions: for CL/F / Kel / AI / CLss/F / Cavg / Cmin / Fl / RAUC2: AUC0-12 (Day 8)/AUC0-inf (Day 1) / AUC(0-t) / AUC(0-inf) / Cmax / half-life / Vd/F: mean; for AUC(0-t) / AUC(0-inf) / Cmax / half-life / Vd/F / Tmax: human, plasma; for Vd/F: read-out: Vz/F; for Tmax: median
Protocol: Three cohorts of eight subjects each (six on active and two on placebo) were enrolled and received the following treatments orally: 100 mg, 200 mg, and 400 mg ASD-in-Capsule b.i.d. (one dose on Days 1 and 8, twice-daily doses from Days 2 to 7) (FIG. 4).
Blood samples were collected post-dosing on Day 1 (at 0.5, 1, 2, 3, 4, 6, 8, 12, and 16 hours) and Day 8 (at 0.5, 1, 2, 3, 4, 6, 8, 10, 12, 16, 20, 24, 30, 36, and 48 hours) as well as immediately pre-morning dose on Days 2-7 and 2 hours post-morning dose on Days 4 and 6. Within 15 minutes of collection, blood samples were centrifuged at 2000 rpm for 10 minutes at 4° C., and, subsequently, the plasma was aliquoted, frozen, and stored at −70° C. pending PK analyses.
The samples were subjected to liquid chromatography followed by analyses by tandem mass spectrometry. The lower limit of quantification for the compound of formula (I) was 5 ng/mL.
The plasma PK parameters were derived by non-compartmental analyses using Phoenix® WinNonlin® version 6.3 or higher (Pharsight Corporation Inc., Mountain View, CA, USA). PK variables were summarized using arithmetic mean, standard deviation, median, minimum, maximum, the percent coefficient of variation, geometric mean, and a two-sided 95% confidence limit of the arithmetic mean and the geometric mean.

[3] = Treatment A (100 mg ASD-in-Capsule oral), Day 1
[4] = Treatment A (100 mg, b.i.d. Days 2-7), Day 8
[5] = Treatment B (200 mg ASD-in-Capsule oral), Day 1
[6] = Treatment B (200 mg, b.i.d. Days 2-7), Day 8
[7] = Treatment C (400 mg ASD-in-Capsule oral), Day 1
[8] = Treatment C (400 mg, b.i.d. Days 2-7), Day 8
[9] = oral, Treatment A (100 mg, b.i.d. Days 2-7), Day 8
[10] = oral, Treatment B (200 mg, b.i.d. Days 2-7), Day 8
[11] = oral, Treatment C (400 mg, b.i.d. Days 2-7), Day 8

CL/F [2, 3]: 28.7 L/h
Kel [2, 3]: 0.106 h⁻¹
AI [2, 4]: 1.59
CLss/F [2, 4]: 23.1 L/h
Cavg [2, 4]: 365 ng/mL
Cmin [2, 4]: 156 ng/mL
Fl [2, 4]: 127%
Kel [2, 4]: 0.0897 h⁻¹
RAUC2: AUC0-12 (Day 8)/AUC0-inf (Day 1) ([2]; Treatment A (100 mg, b.i.d. Days 2-7)): 1.25
CL/F [2, 5]: 20.3 L/h
Kel [2, 5]: 0.119 h⁻¹
AI [2, 6]: 1.57
CLss/F [2, 6]: 16.2 L/h
Cavg [2, 6]: 1090 ng/mL
Cmin [2, 6]: 524 ng/mL
Fl [2, 6]: 132%
Kel [2, 6]: 0.0895 h⁻¹
RAUC2: AUC0-12 (Day 8)/AUC0-inf (Day 1) ([2]; Treatment B (200 mg, b.i.d. Days 2-7)): 1.26
CL/F [2, 7]: 24.0 L/h
Kel [2, 7]: 0.113 h⁻¹
AI [2, 8]: 1.40
CLss/F [2, 8]: 18.2 L/h
Cavg [2, 8]: 2060 ng/mL
Cmin [2, 8]: 1010 ng/mL
Fl [2, 8]: 142%
Kel [2, 8]: 0.115 h⁻¹
RAUC2: AUC0-12 (Day 8)/AUC0-inf (Day 1) ([2]; Treatment C (400 mg, b.i.d. Days 2-7)): 1.28
Steady state achieved ([2]; all three dose levels (100, 200, 400 mg b.i.d.)): ≤ 6 days
AUC(0-t) ([2]; oral, 100 mg, Treatment A (100 mg, b.i.d. Days 2-7), Day 8, read-out: AUC0-12): 4380 ng·h/mL
AUC(0-t) ([2]; oral, 200 mg, Treatment B (200 mg, b.i.d. Days 2-7), Day 8, read-out: AUC0-12): 13100 ng·h/mL
AUC(0-t) ([2]; oral, 400 mg, Treatment C (400 mg, b.i.d. Days 2-7), Day 8, read-out: AUC0-12): 24700 ng·h/mL
AUC(0-inf) [2, 9]: 6180 ng·h/mL
Cmax [2, 9]: 624 ng/mL
half-life [2, 9]: 8.37 h
Vd/F [2, 9]: 277 L
Tmax [2, 9]: 2 h
AUC(0-inf) [2, 10]: 19200 ng·h/mL
Cmax [2, 10]: 1920 ng/mL
half-life [2, 10]: 8.14 h
Vd/F [2, 10]: 189 L
Tmax [2, 10]: 1.5 h
AUC(0-inf) [2, 11]: 36300 ng·h/mL
Cmax [2, 11]: 3710 ng/mL
half-life [2, 11]: 6.57 h
Vd/F [2, 11]: 158 L
Tmax [2, 11]: 1.5 h
AUC(0-t) ([2]; po, 100 mg, Treatment A (100 mg ASD-in-Capsule oral), Day 1, read-out: AUC0-12): 2670 ng·h/mL
AUC(0-t) ([2]; po, 100 mg, Treatment A (100 mg ASD-in-Capsule oral), Day 1, read-out: AUC0-24): 3290 ng·h/mL
AUC(0-t) ([2]; po, 100 mg, Treatment A (100 mg ASD-in-Capsule oral), Day 1, read-out: AUC0-t): 3290 ng·h/mL
AUC(0-t) ([2]; po, 200 mg, Treatment B (200 mg ASD-in-Capsule oral), Day 1, read-out: AUC0-12): 7810 ng·h/mL
AUC(0-t) ([2]; po, 200 mg, Treatment B (200 mg ASD-in-Capsule oral), Day 1, read-out: AUC0-24): 9720 ng·h/mL
AUC(0-t) ([2]; po, 200 mg, Treatment B (200 mg ASD-in-Capsule oral), Day 1, read-out: AUC0-t): 9710 ng·h/mL
AUC(0-t) ([2]; po, 400 mg, Treatment C (400 mg ASD-in-Capsule oral), Day 1, read-out: AUC0-12): 14600 ng·h/mL
AUC(0-t) ([2]; po, 400 mg, Treatment C (400 mg ASD-in-Capsule oral), Day 1, read-out: AUC0-24): 18200 ng·h/mL
AUC(0-t) ([2]; po, 400 mg, Treatment C (400 mg ASD-in-Capsule oral), Day 1, read-out: AUC0-t): 18200 ng·h/mL
AUC(0-inf) [2, 3]: 3550 ng·h/mL
Cmax [2, 3]: 448 ng/mL
half-life [2, 3]: 6.9 h
Vd/F [2, 3]: 291 L
Tmax [2, 3]: 1 h
AUC(0-inf) [2, 5]: 10400 ng·h/mL
Cmax [2, 5]: 1200 ng/mL
half-life [2, 5]: 6.02 h
Vd/F [2, 5]: 176 L
Tmax [2, 5]: 1.02 h
AUC(0-inf) [2, 7]: 19900 ng·h/mL
Cmax [2, 7]: 2730 ng/mL
half-life [2, 7]: 6.48 h
Vd/F [2, 7]: 212 L
Tmax [2, 7]: 1 h
AUC ratio (Day 8/Day 1) ([2]; twice-daily administration, all three dose levels): approximately 1.7 fold
SMILES: Cc1cccc(COc2ccc(Sc3ccoc3C3NC(=O)NC3=O)cc2)c1 (stereo not drawn) [compound of formula (I)]
Adverse events possibly-related to drug administration ([1]; Food effect fasting status): headache
Adverse events possibly-related to drug administration ([1]; Food effect fed status): headache
Total number of AEs possibly related to treatment ([1]; food effect part, in one subject): two
Increase of Cmax and AUC with dose ([2]; from 200 to 400 mg after multiple doses for a week): approximately in a dose-proportional manner
